Assays:
[1] = Polyether solubility of acidic compound (20° C.); conditions: organic solvent or mixture
[2] = pKa of acidic compound in water
From the text: If polyfunctional acids are used, it is sufficient for at least one of the pKa values, preferably the pKa1 of the polyfunctional acid used, to lie within the aforementioned ranges.

[3] = Water solubility of acidic compound at 20° C.
From the text: This object is achieved pursuant to the invention by a condensation-crosslinkable dental material having a composition containing at least one alkoxysilyl-functional and/or hydroxysilyl-functional polyether a), at least one catalyst b), and optionally water c), with the at least one catalyst b) being selected from the group consisting of bases, salts, and any combinations thereof.

| Compound | solubility [1] [mg/mL] | pKa [2] | solubility ([3]; 20 °C, water) [mg/mL] | Water solubility [3] |
| --- | --- | --- | --- | --- |
| O=C1CC(=O)NC(=O)N1 [barbituric acid] | ≤ 2 | 4.01 | 142 |  |
| Cc1ccc(S(=O)(=O)O)cc1 [p-toluenesulfonic acid] |  |  |  | about 750 g/l |

Reference: patent US7790781B2 (priority 2005, dated 2010)
